Data on 3 molecules can be found in US9216170B2, “Combination therapy for proliferative disorders” (Hoffman-La Roche Inc., priority 2012, dated 2015).

The test system of data set [1] is RKO cell xenografts. Kind of data set: Assessment of survival / increase in life span (ILS) in RKO xenograft-bearing mice. Type of data set: in vivo. As to conditions: for % Increased Life Span: Table 3; for % ILS: Table 4; for 50% Treatment Days: median survival day. As for the experimental part:
(§1) Mice were implanted with RKO cell xenografts. The mice, cell line used, and implantation are described below.
(§2) RKO cells (American Type Culture Collection, Rockville, Md.) were maintained in DMEM media+10% (v/v) heat-inactivated FBS+1% (v/v) […] L-glutamine. Each mouse received 2×10^6 cells in a total volume of 0.2 ml. Cells were implanted subcutaneously in the right flank of each mouse using a 1 cc syringe and a 26 gauge needle.
(§3) RKO xenograft-containing mice were randomized into groups of 10 mice each according to tumor volume so that all groups had similar starting mean tumor volumes of about 145 mm^3.
(§4) 10 groups of mice were used.
(§5) Treatment duration was 2 weeks.
For survival assessment, results are plotted as the percentage survival against days after tumor implant (GraphPad Prism, version 5.03). An individual tumor volume of 1500 mm^3 was used as a surrogate for death. The % ILS was calculated as 100×[(median survival day of treated group−median survival day of control group)/median survival day of control group]. Median survival was determined utilizing Kaplan Meier survival analysis. Survival in treated groups was compared with the vehicle group by Log-rank (Mantel-Cox) Test (GraphPad Prism, version 4.3, La Jolla, Calif.). Differences between groups were considered significant when the probability value (p) was ≦0.05.

Data set [2] relates to RKO cell xenografts. Kind of data set: Tumor growth inhibition in RKO xenograft-bearing mice. Type of data set: in vivo. As to conditions: for Mean Tumor Volume (mm^3) Start Study DAY: 14: baseline; for Full Regression / Partial Regression: number of animals. The procedure: as §1, §2, §3, §4, §5
Efficacy data was graphically represented as the mean tumor volume±standard error of the mean (SEM). Tumor volumes of treated groups were presented as percentages of tumor volumes of the control groups (% T/C), using the formula: 100×((T−T0)/(C−C0)), where T represented mean tumor volume of a treated group on a specific day during the experiment, T0 represented mean tumor volume of the same […] group on the first day of treatment; C represented mean tumor volume of a control group on the specific day during the experiment, and C0 represented mean tumor volume of the same […] group on the first day of treatment.
Tumor volume (in cubic millimeters) was calculated using the ellipsoid formula: (D×(d2))/2 where ‘D’ represents the large diameter of the tumor, and ‘d’ represents the small diameter.
Statistical analysis of treated groups was compared with the vehicle group with Mann-Whitney Rank Sum Test, comparisons between groups were analyzed by one-way ANOVA, and post-hoc Bonferroni t-test (GraphPad Prism, version 5.03). Differences between groups were considered to be significant when the probability value (p) was ≦0.05.

The mark [3] stands for this setting: Compound III 100 mg/kg qweekly po.
The mark [4] stands for this setting: Compound II 200 mg/kg qweekly po.

Like-named read-outs stand apart in the source and are kept apart here.

As for `COc1cc(C(=O)O)ccc1NC(=O)[C@@H]1N[C@@H](CC(C)(C)C)[C@](C#N)(c2ccc(Cl)cc2F)[C@H]1c1cccc(Cl)c1F` [Compound III], for the setting “Compound III 80 mg/kg qdx5 po”, the “# of animals ≧ 20% BWL” value was found to be 0, the “% Change in Body Weight at end of Study Day 28” value (“% Change in Body Weight at end” below) is 5.3%, the “Max % Weight Gain” value worked out at 7.4% and the “Max % Weight Loss” value amounted to 5.3%. Further, the Mortality (Compound III 80 mg/kg qdx5 po) came out at 0. Moreover, under setting [3], the “# of animals ≧ 20% BWL” value is given as 0, the “% Change in Body Weight at end” value stood at 6.6%, the “Max % Weight Gain” value is given as 7.5% and the “Max % Weight Loss” value was found to be 4.7%. Under setting [3], the Mortality is reported as 0. Besides, the “% Increased Life Span” value in data set [1] (Compound III 80 mg/kg qdx5 po) was found to be 29%. Moreover, the “% Increased Life Span” value in data set [1] (setting [3]) was determined as 29%. Besides, in data set [1] (Compound III 80 mg/kg), the “% ILS” value was 29% and the “50% Treatment Days” value stood at 31 days. In data set [1] (Compound III 100 mg/kg), the “% ILS” value is 29% and the “50% Treatment Days” value was found to be 31 days. Moreover, in data set [2] (Compound III 80 mg/kg qdx5 po), the “% Inhibition end of study Day: 28” value is recorded as 65%, the “% T/C end of study Day: 28” value came to 35%, the “Mean Tumor Volume (mm^3) End Study DAY: 29” value (from here on “Mean Tumor Volume … 29”) came out at 705.24 mm^3 and the “Mean Tumor Volume (mm^3) Start Study DAY: 14” value (“Mean Tumor Volume … 14” for short) is given as 143.00 mm^3. In addition, in data set [2] (Compound III 80 mg/kg qdx5 po), the “Full Regression” value turned out to be 0 and the “Partial Regression” value is 0. In data set [2] (setting [3]), the “% Inhibition end of study Day: 28” value worked out at 50%, the “% T/C end of study Day: 28” value was determined as 50%, the “Mean Tumor Volume … 29” value came out at 952.64 mm^3 and the “Mean Tumor Volume … 14” value turned out to be 147.78 mm^3. Moreover, in data set [2] (setting [3]), the “Full Regression” value is 0 and the “Partial Regression” value is 0.
As to `CCOc1cc(C(C)(C)C)ccc1C1=N[C@@](C)(c2ccc(Cl)cc2)[C@@](C)(c2ccc(Cl)cc2)N1C(=O)N1CCN(CCCS(C)(=O)=O)CC1` [Compound II], the Reason for mortality/morbidity result (Compound II 100 mg/kg qd po) is listed as “Technical”. Further, the “% Increased Life Span” value in data set [1] (Compound II 100 mg/kg qd po) turned out to be 29%. Also, the “% Increased Life Span” value in data set [1] (setting [4]) was found to be 0%. Also, in data set [1] (Compound II 100 mg/kg), the “% ILS” value amounted to 29% and the “50% Treatment Days” value worked out at 31 days. Further, in data set [1] (Compound II 200 mg/kg), the “% ILS” value is reported as 0% and the “50% Treatment Days” value is 24 days. Further, in data set [2] (Compound II 100 mg/kg qd po), the “% Inhibition end of study Day: 28” value is given as 64%, the “% T/C end of study Day: 28” value was determined as 36%, the “Mean Tumor Volume … 29” value is reported as 726.30 mm^3 and the “Mean Tumor Volume … 14” value is 146.39 mm^3. Further, in data set [2] (Compound II 100 mg/kg qd po), the “Full Regression” value was found to be 0 and the “Partial Regression” value is listed as 0. Further, in data set [2] (setting [4]), the “% Inhibition end of study Day: 28” value stood at 18%, the “% T/C end of study Day: 28” value came out at 82%, the “Mean Tumor Volume … 29” value is 1466.93 mm^3 and the “Mean Tumor Volume … 14” value is recorded as 141.33 mm^3. In data set [2] (setting [4]), the “Full Regression” value worked out at 0 and the “Partial Regression” value stood at 0.
For `CCCS(=O)(=O)Nc1ccc(F)c(C(=O)c2c[nH]c3ncc(-c4ccc(Cl)cc4)cc23)c1F` [vemurafenib, Propane-1-sulfonic acid {3-[5-(4-chlorophenyl)-1H-pyrrolo[2,3-b]pyridine-3-carbonyl-2,4-difluoro-phenyl]-amide}, reference compound], for the setting “vemurafenib 50 mg/kg bid po”, the “# of animals ≧ 20% BWL” value amounted to 0, the “% Change in Body Weight at end” value came to 4.6%, the “Max % Weight Gain” value amounted to 7.5% and the “Max % Weight Loss” value was 2.8%. The molecule further had a Mortality (vemurafenib 50 mg/kg bid po) of 0. Besides, the “% Increased Life Span” value in data set [1] (vemurafenib 50 mg/kg bid po) is recorded as 0%. In data set [1] (vemurafenib 50 mg/kg), the “% ILS” value is on record as 0% and the “50% Treatment Days” value was determined as 24 days. Also, in data set [2] (vemurafenib 50 mg/kg bid po), the “% Inhibition end of study Day: 28” value worked out at 7%, the “% T/C end of study Day: 28” value was determined as 93%, the “Mean Tumor Volume … 29” value came to 1643.76 mm^3 and the “Mean Tumor Volume … 14” value was 142.50 mm^3. In data set [2] (vemurafenib 50 mg/kg bid po), the “Full Regression” value was 0 and the “Partial Regression” value turned out to be 0.
